# Measurements reported in patent US20030055106A1, “Therapeutic uses of peroxometallic compounds” (priority 1999, published 2003).
# Assays:
# [1] = system: left carotid artery; experiment: Balloon angioplasty of the left carotid artery (restenosis); format: in vivo, Male Sprague-Dawley rats
# Procedure: The data presented in Table IV show the effect of the pV compound bpV(bipy) on restenosis. Male Sprague-Dawley rats (325-350 g) were anaesthetized with Rogarsetic, a mixture of ketamine hydrochloride and xylazine hydrochloride. The animals were divided into two groups of 14-31 rats that underwent balloon angioplasty of the left carotid artery, with or without treatment (108). The treated group received bpV (bipy) (10 mg/kg/i.p. b.i.d.) for 14 days, starting on the day of the angioplasty. Every animal in each group underwent balloon angioplasty of the left external carotid whereas the contra-lateral carotid served as a control for each animal. The left carotid artery balloon angioplasty was performed under aseptic conditions. The left external carotid was isolated and an arteriotomy was performed. A 2F Fogarty arterial embolectomy catheter was then inserted in the left common carotid and positioned near the aortic arch. The balloon was then inflated and retracted with a twisting motion to its insertion point. This procedure was repeated twice and the external carotid was ligated. There were no differences in the lumina (L), intima (I), media (M), the ratio of I/M and calculated value of (M−L/P) as a measure of neointimal proliferation (NIP) between normal, non-ballooned carotid artery of treated and non-treated rats, serving as controls (data not shown).
# [2] = system: Human umbilical vein endothelial cells (HUVECs); settings: read-out: approximate IC50, endothelial cell proliferation; 96 hours in culture
# Procedure: Each experiment was performed in triplicate. The culture medium was changed daily.
# [3] = system: HUVECs; experiment: HUVEC differentiation and organization into tubular-like structures in fibrin matrix; format: cell-based, Human; parameters: key to cords / tubes / Stell. struct.: †: Dead cells
# Procedure: Alternatively, HUVECs cultured in a fibrin matrix can form 3-dimensional tubular-like structures in the presence of serum (103). This assay was performed in the presence of either bpV(phen), bpv(pic) or vanadate to assess the influence of each one of these compounds on HUVEC differentiation and organization (Table 1). HUVECs were seeded on the bottom of gelatin-coated wells at high density to provide a confluent monolayer at 48 hours.
# Then, 50 000 HUVECs/ml were embedded in fibrinogen solution prior to polymerization. The fibrin matrix was covered with culture medium containing the molecule to be tested, while culture medium without any of these molecules served as controls. Cell behavior was observed periodically by phase contrast microscopy.
# [4] = system: Rat aorta rings; experiment: Rat aortic ring assay (cell/microvessel migration in fibrin gel); format: cell-based
# From the text: FIG. 3: Micrographs of the cell migration from aortic rings embedded in fibrin (×12).
# FIG. 4: Quantification of the cell migration from aortic rings in the presence of orthovanadate (plain bars); bpV(phen) (light gray bars); and bpV(pic) (dark gray bars). The control appears as an empty bar. Means and standard errors of the means are presented.
# Rat aorta rings were embedded in fibrin matrix as previously described (107). Thoracic aortas excised from adult rats were rinsed in Hank's balanced salt solution (HBSS), and cleansed of periadventitial. One-mm long aortic rings were sectioned and rinsed in culture medium. Each of the aortic rings were then embedded in fibrin gel matrix. Migration of microvessels in fibrin gel was quantified by measuring the distance from the external surface of rat aortic rings towards the migrating vessels. Measurements were performed at day 15 by digitizing morphometry with a NIH image analysis system (FIGS. 3 and 4).
# [5] = system: vitelline membrane of chick embryos; experiment: Embryonic vascularization test (EVT) ex ovo; format: in vivo; settings: for approximate IC50, neovascularization (regardless of the scoring system): per methylcellulose disc
# From the text: FIG. 2: A and B show an anti-angiogenic response to bpV(phen), orthovanadate (Van) and protamine (Prot) using a vascularization test on the vitelline membrane of chick embryos. Each point represents a minimum of 15 embryos (15 to 28).
# The normal development of a chick embryo involves the formation of an external vascular system which is located in the vitelline membrane and which carries nutrients from the vitellus (yolk of the egg) to the developing embryo. When placed onto the vitelline membrane, anti-angiogenic substances can inhibit blood vessel development in the vitelline membrane. To facilitate access to the vitelline membrane, chick embryos were transferred to a sterile culture box (Petri dish) and placed in a humidity- and temperature-controlled incubator. Embryos could then develop in this ex ovo condition for several days.
# An aliquot of the tested compound was mixed with a methylcellulose solution and allowed to air-dry into thin discs. Methylcellulose forms an inert matrix from which the tested compound can diffuse slowly. Methylcellulose discs containing the tested compound were placed on the external border of the vascular perimeter of the vitelline membrane where the angiogenic process was still active.
# The effects of the discs containing the tested compound on proximal vascular development were, in all cases, compared with those of discs containing control buffer. The discs were placed on the embryos' vitelline membrane on Day 0 or Day 1 of the ex ovo growth process; at this point, only beginnings of the main blood vessels are invading the vitellus. The embryos were then put in culture conditions until vascularization was assessed (approximately 24 h). Control buffer- and compound-containing discs were in all cases added simultaneously on the vitelline membrane of the same embryo. Both discs were arranged in a symmetrical fashion with respect to the cephalo-caudal axis of the embryo in order to minimize inter-individual variations when comparing the tested compounds with controls.
# […] After one day in culture, the level of vascularization in the area covered by the discs was graded by a pair of scientists in the usual blind fashion. To facilitate the location of the discs, black O-rings were placed around them just after their placement on the vitelline membrane. The evaluation scale for the EVTs was based on two different scoring systems.
# Blood vessel formation was assessed in a blind fashion. The areas of the vitelline membranes that lay beneath the methylcellulose discs were scored for the degree of vascularization, using two scoring systems (“N/+” or “1-2-3”). The following selection criteria were used:
# A score of “N” for “Normal” was attributed when all the following conditions were met:
# Blood vessels in the evaluated area grew along their path with no abnormal deviation. Collateral branching density was normal and the growth path of the lateral branches was also normal.
# A score of “+” was attributed when at least one of the following conditions was met:
# 1-2-3 Grading Scale System:
# A score of 3 was attributed when the following conditions were met:
# A score of 2 was attributed when at least one of the following conditions was met:
# A score of 1 was attributed when at least one of the following conditions was met:
# A score of 3 meant that blood vessel development was normal whereas a score of 1 indicated the greatest degree of angiostatic activity.
# [6] = system: ETs (ET-1, ET-2, ET-3); experiment: Plasma endothelin levels after insulin (RIA); format: in vivo; settings: rats; two minutes after insulin 1.5 μg/100 g b.w.; no bpV(phen)
# Procedure: The data presented in Table III show the effect of bpV(phen) on the plasmatic levels of ETs. […] Two minutes following insulin administration (1.5 μg/100 g b.w, or vehicle), the plasma levels of ETs were determined. Insulin administration induced a strong increase of seric ET concentration (54). […] In addition, bpV(phen) decreased the insulin-stimulated levels of plasmatic ETs below control levels. […] ETs (ET-1, ET-2, ET-3) were measured by RIA (Amersham kit RPA 555) after lyophilization and extraction on C2 columns (500 mg). Results are mean ±SEM, p<0.0209, control (n=4) vs Insulin, pV (n=3).
# [7] = 10 mg/kg/i.p. b.i.d. for 14 days, ballooned left carotid
# [8] = treated vs non-treated, 10 mg/kg/i.p. b.i.d. 14 days
# [9] = anti-angiogenic effect on stellate structures
compound,measurement,setting,value
"[K+].[O]=[V-]12([O][O]1)[O][O]2.c1ccc(-c2ccccn2)nc1 [bpV(bipy), potassium bisperoxo(2,2′-bipyridyl) oxovanadate]",I (intima),[1]; [7],0.112 mm^2
same,I/M,[1]; [7],1.086
same,L (lumina),[1]; [7],0.112 mm^2
same,M (media),[1]; [7],0.104
same,NIP (neointimal proliferation),[1]; [7],0.045 mm
same,decrease in NIP,[1]; [8],32%
same,decrease in the I/M ratio,[1]; [8],32%
same,increase in the opening of the L,[1]; [8],28%
same,reduction in the thickness of the I,[1]; [8],21%
"O=C(O)c1ccccn1.OO.OO.[K+].[K+].[O]=[V] [bpV(pic), potassium bisperoxo(pyridine-2-carboxylato)oxovanadate]",IC50,[2],~3.5 µM
same,structures observed by phase contrast microscopy,"[3]; 1, 2 and 3.5 μM",cords and tubes were observed
same,cell migration from aortic rings,[4]; 10-25 μM,inhibition was seen
[O]=[V]([O-])([O-])[O-] [orthovanadate],structures observed by phase contrast microscopy,[3]; 10 μM,cords were still apparent
same,Stell. struct.,[3]; 25 μM,†
same,cords,[3]; 25 μM,†
same,structures observed by phase contrast microscopy,[3]; 25 μM,dead cells were sparsely distributed
same,tubes,[3]; 25 μM,†
same,times less potent than bpV(phen),[3]; [9],≥ 5 times
same,times less potent than bpV(pic),[3]; [9],at least 3 times
same,Anti-angio.activity 1 to 3 (1: no angiogenesis; 3: normal angiogenesis),"[5]; 0.001 μg, Assay 3",2.8
same,Anti-angio.activity % (proportion of embryos showing an anti-angiogenic response),"[5]; 0.001 μg, Assay 3",7%
same,Anti-angio.activity 1 to 3 (1: no angiogenesis; 3: normal angiogenesis),"[5]; 0.001 μg, Assay 5",2.8
same,Anti-angio.activity % (proportion of embryos showing an anti-angiogenic response),"[5]; 0.001 μg, Assay 5",7%
same,Anti-angio.activity 1 to 3 (1: no angiogenesis; 3: normal angiogenesis),"[5]; 0.01 μg, Assay 3",2.4
same,Anti-angio.activity % (proportion of embryos showing an anti-angiogenic response),"[5]; 0.01 μg, Assay 3",24%
same,Anti-angio.activity 1 to 3 (1: no angiogenesis; 3: normal angiogenesis),"[5]; 0.01 μg, Assay 5",2.4
same,Anti-angio.activity % (proportion of embryos showing an anti-angiogenic response),"[5]; 0.01 μg, Assay 5",24%
same,Anti-angio.activity 1 to 3 (1: no angiogenesis; 3: normal angiogenesis),"[5]; 0.1 μg, Assay 3",2.4
same,Anti-angio.activity % (proportion of embryos showing an anti-angiogenic response),"[5]; 0.1 μg, Assay 3",28%
same,Anti-angio.activity 1 to 3 (1: no angiogenesis; 3: normal angiogenesis),"[5]; 0.1 μg, Assay 5",2.4
same,Anti-angio.activity % (proportion of embryos showing an anti-angiogenic response),"[5]; 0.1 μg, Assay 5",28%
same,Anti-angio.activity 1 to 3 (1: no angiogenesis; 3: normal angiogenesis),"[5]; 1 μg, Assay 3",2.0
same,Anti-angio.activity % (proportion of embryos showing an anti-angiogenic response),"[5]; 1 μg, Assay 3",70%
same,Anti-angio.activity 1 to 3 (1: no angiogenesis; 3: normal angiogenesis),"[5]; 1 μg, Assay 4",1.7
same,Anti-angio.activity % (proportion of embryos showing an anti-angiogenic response),"[5]; 1 μg, Assay 4",57%
same,Anti-angio.activity 1 to 3 (1: no angiogenesis; 3: normal angiogenesis),"[5]; 1 μg, Assay 5",1.9
same,Anti-angio.activity % (proportion of embryos showing an anti-angiogenic response),"[5]; 1 μg, Assay 5",64%
same,"approximate IC50, neovascularization (regardless of the scoring system)",[5],~0.6 µg
same,cell migration from aortic rings,[4]; 3.5 μM,no effect
same,cell migration from aortic rings,[4]; 25 μM,partial inhibition
Insulin: insulin administered to rats to induce an increase of ET concentration,Plasma endothelins,[6],253.10 pg/mL
Protamine,Anti-angio.activity 1 to 3 (1: no angiogenesis; 3: normal angiogenesis),"[5]; 5 μg, Assay 1",2.3
same,Anti-angio.activity % (proportion of embryos showing an anti-angiogenic response),"[5]; 5 μg, Assay 1",23%
same,Anti-angio.activity 1 to 3 (1: no angiogenesis; 3: normal angiogenesis),"[5]; 5 μg, Assay 4",2.3
same,Anti-angio.activity % (proportion of embryos showing an anti-angiogenic response),"[5]; 5 μg, Assay 4",9%
same,Anti-angio.activity 1 to 3 (1: no angiogenesis; 3: normal angiogenesis),"[5]; 5 μg, Assay 5",2.3
same,Anti-angio.activity % (proportion of embryos showing an anti-angiogenic response),"[5]; 5 μg, Assay 5",16%
same,Anti-angio.activity 1 to 3 (1: no angiogenesis; 3: normal angiogenesis),"[5]; 10 μg, Assay 4",2.1
same,Anti-angio.activity % (proportion of embryos showing an anti-angiogenic response),"[5]; 10 μg, Assay 4",54%
same,Anti-angio.activity 1 to 3 (1: no angiogenesis; 3: normal angiogenesis),"[5]; 10 μg, Assay 5",2.1
same,Anti-angio.activity % (proportion of embryos showing an anti-angiogenic response),"[5]; 10 μg, Assay 5",54%
same,Anti-angio.activity 1 to 3 (1: no angiogenesis; 3: normal angiogenesis),"[5]; 20 μg, Assay 1",2.0
same,Anti-angio.activity % (proportion of embryos showing an anti-angiogenic response),"[5]; 20 μg, Assay 1",46%
same,Anti-angio.activity 1 to 3 (1: no angiogenesis; 3: normal angiogenesis),"[5]; 20 μg, Assay 2",1.5
same,Anti-angio.activity % (proportion of embryos showing an anti-angiogenic response),"[5]; 20 μg, Assay 2",80%
same,Anti-angio.activity 1 to 3 (1: no angiogenesis; 3: normal angiogenesis),"[5]; 20 μg, Assay 3",1.5
same,Anti-angio.activity % (proportion of embryos showing an anti-angiogenic response),"[5]; 20 μg, Assay 3",79%
same,Anti-angio.activity 1 to 3 (1: no angiogenesis; 3: normal angiogenesis),"[5]; 20 μg, Assay 4",1.8
same,Anti-angio.activity % (proportion of embryos showing an anti-angiogenic response),"[5]; 20 μg, Assay 4",80%
same,Anti-angio.activity 1 to 3 (1: no angiogenesis; 3: normal angiogenesis),"[5]; 20 μg, Assay 5",1.7
same,Anti-angio.activity % (proportion of embryos showing an anti-angiogenic response),"[5]; 20 μg, Assay 5",71%
same,Anti-angio.activity 1 to 3 (1: no angiogenesis; 3: normal angiogenesis),"[5]; 30 μg, Assay 4",1.8
same,Anti-angio.activity % (proportion of embryos showing an anti-angiogenic response),"[5]; 30 μg, Assay 4",67%
same,Anti-angio.activity 1 to 3 (1: no angiogenesis; 3: normal angiogenesis),"[5]; 30 μg, Assay 5",1.8
same,Anti-angio.activity % (proportion of embryos showing an anti-angiogenic response),"[5]; 30 μg, Assay 5",67%
same,"approximate IC50, neovascularization (regardless of the scoring system)",[5],~11 µg
